In patent US20030013643A1, “Prevention and treatment of streptococcal and staphylococcal infection” (priority 2000, published 2003):

Experiments:
[1] = test system: GAS; assay: GAS attachment to murine keratinocyte cell line PAM2.12 with exogenous hyaluronic acid; assay type: cell-based, Streptococcus pyogenes
Procedure: For bacterial adherence assays, keratinocytes were seeded at 10^5 cells per well in collagen-coated tissue culture wells (Nalge Nunc International, Naperville, Ill.), incubated for 3 days at 34° C. in 8% CO2, washed, and overlaid with medium containing 10^6 CFU of GAS per well. After incubation for 1 hour at 34° C. in 8% CO2 the keratinocyte monolayers were washed twice to remove nonadherent bacteria, then the number of cell-associated bacteria was determined by quantitative culture after releasing the keratinocytes with try spin and lysing them in sterile water, experiments testing the effects of exogenous hyaluronic acid on GAS adherence were performed using the mouse keratinocyte cell line, PAM 2.12 (Song, I. S. 2000, Exp. Dermatol. 9:42-52). Cells were seeded in collagen-coated tissue culture wells at 10^5 cells per well, cultured for 3 days at 37° C. in 5% CO2, then inoculated with 10^6 CFU of GAS per well in medium containing exogenous hyaluronic acid (from rooster comb, Sigma Chemicals, St. Louis, Mo.), no inhibitor, or a control polysaccharide, alginic acid, a high-molecular-weight polymer of mannuronic acid and guluronic acid (Protonal Durvillea Alginate, Pronova. Biopolymer, Inc., Portsmouth, N.H.). Cells were incubated for 45 minutes at 37° C. in 5% CO2, then processed for enumeration of adherent bacteria as described above. In experiments to test whether exogenous hyaluronic acid could promote dissociation of GAS attached to keratinocytes, GAS were allowed to attach to keratinocytes in the absence of inhibitor; after 45 minutes, the medium was removed and replaced with fresh medium containing hyaluronic acid, no inhibitor, or alginic acid. After 45 minutes of incubation, the number of adherent bacteria was enumerated as described above.
To investigate the specificity of the interaction between the GAS capsule and CD44 on epithelial cells, the ability of exogenous hyaluronic acid to compete with GAS for binding to murine keratinocytes was examined. Addition of exogenous hyaluronic acid to concentration 1 mg/ml[…], inhibited GAS attachment to the murine keratinocyte cell line PAM2.12 by >95% (P<0.03, FIG. 5). A concentration of 1 /ml alginic acid, another high molecular weight acidic polysaccharide, had no effect, supporting the hypothesis that adherence depends on a specific interaction between the GAS hyaluronic acid capsule and CD44 .
In addition to the 1 mg/ml concentration of hyaluronic acid, additional trials were performed as indicated above, with a range of concentrations of hyaluronic acid added to the cells. The concentrations tested included 4 mg/ml, 2 mg/ml, 1 mg/ml, 0.75 mg/ml, 0.5 mg/ml, 0.25 mg/ml and 0.1 mg/ml. The hyaluronic acid concentrations from 4 mg/ml to 0.25 mg/ml blocked GAS binding by greater than 70%. Hyaluronic acid concentrations from 4 mg/ml to 0.5 mg/ml blocked GAS binding by greater than 80% (FIG. 6).

[2] = test system: GAS 950771 or GAS 282; assay: GAS binding to and displacement from human keratinocyte monolayers; assay type: cell-based, Streptococcus pyogenes; details: 1 mg/ml
[3] = test system: Group A Streptococcus (GAS, strain 950771); assay: Bacterial binding to human keratinocyte monolayers, GAS; assay type: cell-based; details: 1 mg/ml pre-incubation; multiplicity of infection 10; 1 hour
Procedure: (§1) Keratinocyte monolayers were prepared as descibed above in Methods section and pre-incubated with 1 mg/ml alginate (AL, solid bars) or 1 mg/ml hyaluronic acid (HA, hatched bars) prior to surface inoculation (as described above in Methods) with either Group A Streptococcus (GAS, strain 950771), Group B Streptococcus (GBS, strain 515), Streptococcus pneumoniae (S. pneumo, type 6), or Staphylococcus aureus (S. aureus, type 8) at a multiplicity of infection of 10 bacteria per keratinocyte for 1 hour.

[4] = test system: Group B Streptococcus (GBS, strain 515); assay: Bacterial binding to human keratinocyte monolayers, GBS; assay type: cell-based; details: 1 mg/ml pre-incubation; multiplicity of infection 10; 1 hour
Procedure: as §1

[5] = test system: Streptococcus pneumoniae (S. pneumo, type 6); assay: Bacterial binding to human keratinocyte monolayers, S. pneumoniae; assay type: cell-based; details: 1 mg/ml pre-incubation; multiplicity of infection 10; 1 hour
Procedure: as §1

[6] = test system: Staphylococcus aureus (S. aureus, type 8); assay: Bacterial binding to human keratinocyte monolayers, S. aureus; assay type: cell-based; details: 1 mg/ml pre-incubation; multiplicity of infection 10; 1 hour
Procedure: as §1

Substance: hyaluronic acid
- reduction in bacterial attachment ([1]; added up to 45 minutes after adding GAS to the keratinocytes, P<0.03): > 90%
- reduction of GAS attachment ([1]; addition delayed for 2 hours, P<0.03): 70-80%
- blocking of GAS binding ([1]; concentrations from 4 mg/ml to 0.25 mg/ml): greater than 70%
- blocking of GAS binding ([1]; concentrations from 4 mg/ml to 0.5 mg/ml): greater than 80%
- inhibition of GAS attachment to PAM2.12 ([1]; hyaluronic acid 1 mg/ml added with GAS, P<0.03): > 95%
- inhibition of GAS binding to human cells ([2]; GAS 950771 or GAS 282, not strain specific): block GAS binding to human cells
- displacement of bound bacteria ([2]; after 45 minutes): displaced bound GAS
- inhibition of binding [3]: more than 80%
- inhibition of binding [4]: more than 80%
- inhibition of binding [5]: more than 80%
- inhibition of binding [6]: more than 80%
